Consider twelve substances from US20260325605A1, “INHIBITORS” (Zealand Pharma A/S, priority 2022, published 2026).

For one assay, the target named is T1, Kv1.3 (Homo sapiens, UniProt P22001).
T1 construct: expressed in transfected cells
Kind of assay: Patch clamp assay (QPatch), Kv1.3. It counts as cell-based. As to conditions: CHO cells stably expressing human Kv1.3, read-out: Potency IC50, Kv1.3. A general note: Patch clamp records ionic current or voltage across a cell membrane.

Another assay concerns the target T2, Kv1.1 (Homo sapiens, UniProt Q09470).
T2 construct: expressed in transfected cells
Kind of assay: Patch clamp assay (QPatch), Kv1.1. It is filed as cell-based. The conditions noted are these: for IC50: QPatch, CHO cells stably expressing human Kv1.1, read-out: Potency IC50, Kv1.1; for Selectivity Kv1.1/Kv1.3: ratio of IC50 Kv1.1/Kv1.3.

The target of another assay is T3, Kv1.2 (Homo sapiens, UniProt P16389).
T3 construct: expressed in transfected cells
T3 sequence (P16389 whole entry): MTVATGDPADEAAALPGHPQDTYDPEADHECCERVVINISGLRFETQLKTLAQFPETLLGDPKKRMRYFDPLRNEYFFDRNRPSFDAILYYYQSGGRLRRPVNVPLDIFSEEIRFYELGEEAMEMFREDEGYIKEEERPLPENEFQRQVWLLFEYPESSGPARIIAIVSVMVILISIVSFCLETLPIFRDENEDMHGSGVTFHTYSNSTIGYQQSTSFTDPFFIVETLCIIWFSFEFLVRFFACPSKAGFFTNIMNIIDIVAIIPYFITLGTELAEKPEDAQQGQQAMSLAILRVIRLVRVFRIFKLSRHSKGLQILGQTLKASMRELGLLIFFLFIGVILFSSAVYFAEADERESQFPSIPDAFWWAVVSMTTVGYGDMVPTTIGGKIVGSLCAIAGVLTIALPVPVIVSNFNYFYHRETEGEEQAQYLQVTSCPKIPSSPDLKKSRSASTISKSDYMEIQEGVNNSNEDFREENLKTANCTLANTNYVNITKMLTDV
Kind of assay: Patch clamp assay (QPatch), Kv1.2. It counts as cell-based. The conditions noted are these: for IC50: QPatch, CHO cells stably expressing human Kv1.2, read-out: Potency IC50, Kv1.2; for Selectivity Kv1.2/Kv1.3: ratio of IC50 Kv1.2/Kv1.3.

In another assay the target is T4, Kv1.6 (Homo sapiens, UniProt P17658).
T4 construct: expressed in transfected cells
T4 sequence (P17658 whole entry): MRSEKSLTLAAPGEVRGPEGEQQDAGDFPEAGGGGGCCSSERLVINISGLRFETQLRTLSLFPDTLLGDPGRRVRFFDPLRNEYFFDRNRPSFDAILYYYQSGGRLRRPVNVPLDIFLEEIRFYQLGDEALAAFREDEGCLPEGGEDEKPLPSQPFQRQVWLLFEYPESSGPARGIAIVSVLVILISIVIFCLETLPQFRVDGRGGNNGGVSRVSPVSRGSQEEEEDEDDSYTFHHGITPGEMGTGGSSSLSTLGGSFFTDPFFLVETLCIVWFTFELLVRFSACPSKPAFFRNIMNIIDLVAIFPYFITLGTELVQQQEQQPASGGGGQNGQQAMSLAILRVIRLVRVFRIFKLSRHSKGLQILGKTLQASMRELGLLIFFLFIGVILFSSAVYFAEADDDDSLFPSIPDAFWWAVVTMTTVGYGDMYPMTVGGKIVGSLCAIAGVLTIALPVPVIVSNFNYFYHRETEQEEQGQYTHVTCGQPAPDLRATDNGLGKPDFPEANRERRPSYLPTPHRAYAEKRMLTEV
Kind of assay: Patch clamp assay (QPatch), Kv1.6. As to conditions: for IC50: QPatch, CHO cells stably expressing human Kv1.6, read-out: Potency IC50, Kv1.6; for Selectivity Kv1.6/Kv1.3: ratio of IC50 Kv1.6/Kv1.3. It is filed as cell-based.

Assay [1] has as its system T-cell activation in rat whole blood. Kind of assay: Example 4: IL-17A release in thapsigargin stimulated rat whole blood. It counts as cell-based, rat (Lewis or Sprague-Dawley). As to conditions: 24 Hr, at least 2 replicates, unit inferred, read-out: IC50 (inhibition of IL-17A release). The text has this:
Rat whole blood was used to assess the potency of Kv1.3 inhibitor peptides on T-cell activation as determined by IL-17A release after stimulation with thapsigargin. Addition of thapsigargin results in activation of a signalling cascade ending up in activation of T cell proliferation and cytokine production where the Kv1.3 ion channel plays a key role, so activity of Kv1.3 inhibitors in primary cells can be measured in this experimental system.
Rat whole blood was obtained from healthy, naïve Lewis or Sprague-Dawley rats that were terminally bleed from the heart using Sodium Heparin blood sampling tubes for collection. Peptides were diluted to 4× final testing concentrations in assay buffer (DMEM+GlutaMAX), GlutaMAX is a medium comprising 3.97 mM L-alanine-L-glutamine (Gibco Cat #61965026) supplemented with 25 mM HEPES buffer, 1 mM Sodium Pyruvate, 100 units/ml Penicillin, 100 μg/ml Streptomycin and 0.05% Casein from bovine milk (Sigma-Aldrich)) and 25 μl was added to wells of a 96 well plate. Then 50 μl whole rat blood was added and incubated for minimum 5 minutes at room temperature to allow compound binding. Then 25 μl 40 μM thapsigargin diluted in assay buffer was added to all wells of the assay plates to activate the cells, followed by incubation for 24 Hr at 37° C./5% CO2 in a humidified box. The assay plates were centrifuged for 10 min at 300 g at 4° C. and the supernatants were transferred to new plates. The concentrations of IL-17A released to the supernatants were measured using a Rat IL-17A ELISA Kit (Abcam Cat #ab214028) as recommended by the manufacturer. Samples were diluted 2.5-fold by transferring 20 μl of the supernatants to wells on ELISA plates containing 30 μl buffer 75BS from the detection kit.
Data from peptides eliciting an inhibition of IL-17A were normalised relative to full thapsigargin activation (no inhibitor added) and no activation controls (addition of assay buffer instead of thapsigargin) to calculate the IC50 from the concentration response curve.
Results are shown in Table 5, expressed as IC50, with standard deviation (IC50_SD). All values are derived from at least 2 replicates. The biological effects ex vivo show a correlation with the potency of the peptides.

T1 sequence (P22001 whole entry): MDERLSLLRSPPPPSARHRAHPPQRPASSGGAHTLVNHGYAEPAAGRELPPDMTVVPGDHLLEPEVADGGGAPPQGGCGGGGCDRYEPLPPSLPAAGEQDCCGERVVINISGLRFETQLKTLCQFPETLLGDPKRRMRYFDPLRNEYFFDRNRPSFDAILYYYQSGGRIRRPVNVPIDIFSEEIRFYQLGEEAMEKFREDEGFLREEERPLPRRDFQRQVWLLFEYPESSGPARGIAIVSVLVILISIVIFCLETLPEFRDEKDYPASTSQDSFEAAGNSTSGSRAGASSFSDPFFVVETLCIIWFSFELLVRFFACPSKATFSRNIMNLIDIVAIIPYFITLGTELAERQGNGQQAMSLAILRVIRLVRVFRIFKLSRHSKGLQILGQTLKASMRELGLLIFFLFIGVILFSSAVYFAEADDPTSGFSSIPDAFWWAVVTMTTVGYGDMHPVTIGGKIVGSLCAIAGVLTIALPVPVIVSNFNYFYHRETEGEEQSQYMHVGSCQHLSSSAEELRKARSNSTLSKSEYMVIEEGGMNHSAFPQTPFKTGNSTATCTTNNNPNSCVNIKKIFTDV
T2 sequence (Q09470 whole entry): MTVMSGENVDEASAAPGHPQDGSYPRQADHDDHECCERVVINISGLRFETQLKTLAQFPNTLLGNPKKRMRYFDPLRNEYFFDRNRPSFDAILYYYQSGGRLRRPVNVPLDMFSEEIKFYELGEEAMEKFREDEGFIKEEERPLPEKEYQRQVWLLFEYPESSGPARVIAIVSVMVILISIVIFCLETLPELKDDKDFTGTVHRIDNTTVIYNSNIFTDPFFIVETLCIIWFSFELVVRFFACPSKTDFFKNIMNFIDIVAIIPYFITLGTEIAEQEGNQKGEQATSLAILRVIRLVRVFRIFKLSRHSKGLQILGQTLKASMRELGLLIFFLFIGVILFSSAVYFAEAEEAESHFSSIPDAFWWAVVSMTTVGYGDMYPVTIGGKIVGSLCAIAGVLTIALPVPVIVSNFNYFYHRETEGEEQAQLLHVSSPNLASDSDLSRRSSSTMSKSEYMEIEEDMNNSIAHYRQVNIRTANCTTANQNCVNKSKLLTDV

As a reminder, the IC50 is the concentration that gives 50% inhibition. Take “Ac-C(1)SASVEC(2)KQKC(3)LKAIGSIFGKC(1)[Nle]NKKC(2)KC(3)YPR-NH2 [Peptide 109]”: the IC50 on Kv1.3 is 0.24 nM; on Kv1.1, greater than 3000 nM; on Kv1.2, 384 nM; at Kv1.6, greater than 3000 nM; in assay [1] it was 0.88 nM. Also, the “Selectivity Kv1.1/Kv1.3” value at Kv1.1 is reported as greater than 12400. For the same substance, at Kv1.2, the “Selectivity Kv1.2/Kv1.3” value was found to be 1591. For the same substance, the “Selectivity Kv1.6/Kv1.3” value at Kv1.6 is listed as greater than 12400.
As to “Ac-LRC(1)SASVEC(2)KQKC(3)LKAIGSIFGKC(1)[Nle]NKKC(2)KC(3)YPR-NH2 [Peptide 114]”, the concentration for half-maximal inhibition (IC50) was 0.35 nM at Kv1.3; greater than 3000 nM on Kv1.1; 122 nM at Kv1.2; 2460 nM at Kv1.6; 0.37 nM in assay [1]. The “Selectivity Kv1.1/Kv1.3” value at Kv1.1 is on record as greater than 8700. Also, at Kv1.2, the “Selectivity Kv1.2/Kv1.3” value is listed as 352. For the same substance, on Kv1.6, the “Selectivity Kv1.6/Kv1.3” value is on record as 7096.
For the substance “H-H[Nle]D[Nle]RC(1)SASVEC(2)KQKC(3)LKAIGSIFGKC(1)[Nle]NKKC(2)KC(3)YPR-NH2 [Peptide 65]”, the 50% inhibitory concentration (IC50) is 0.25 nM at Kv1.3 and 1.2 nM in assay [1].
The like results for “H-NMDMRC(1)SASVEC(2)KLKC(3)LKAIGSIFGKC(1)MNKKC(2)KC(3)YPR-NH2 [Peptide 33]” were, in that order, 0.38 nM and 0.75 nM.
Regarding “H-P[Nle]E[Nle]RC(1)[2,4-Diaminobutanoyl]ASVEC(2)KQKC(3)LAAIGSIFGKC(1)[Nle]NKKC(2)KC(3)YPR-OH [Peptide 84]”, the IC50 at Kv1.3 is 0.028 nM; at Kv1.1, greater than 3000 nM; on Kv1.2, 480 nM; on Kv1.6, greater than 3000 nM. At Kv1.1, the “Selectivity Kv1.1/Kv1.3” value was greater than 100000. The “Selectivity Kv1.2/Kv1.3” value at Kv1.2 is recorded as 17000. The “Selectivity Kv1.6/Kv1.3” value on Kv1.6 was greater than 100000.
“H-P[Nle]E[Nle]RC(1)[2-Amino-3-guanidinopropionyl]ASVEC(2)KQKC(3)LAAIGSIFGKC(1)[Nle]NKKC(2)KC(3)YPR-OH [Peptide 91]”: at Kv1.3, the IC50 was found to be 0.064 nM. Besides, at Kv1.1, the IC50 is greater than 3000 nM and the “Selectivity Kv1.1/Kv1.3” value was greater than 46000. At Kv1.2, the IC50 amounted to 380 nM and the “Selectivity Kv1.2/Kv1.3” value was determined as 6000. At Kv1.6, the IC50 is greater than 3000 nM and the “Selectivity Kv1.6/Kv1.3” value was greater than 46000.
“H-QMDMRC(1)SASVEC(2)KQKC(3)LKAIGRGFGKC(1)MNKKC(2)KC(3)YPR-OH [Peptide 2]”: the concentration for half-maximal inhibition (IC50) was 1.5 nM on Kv1.3, greater than 3000 nM at Kv1.1, 97 nM at Kv1.2 and 1810 nM at Kv1.6. For the same substance, the “Selectivity Kv1.1/Kv1.3” value on Kv1.1 is given as greater than 2000. Also, the “Selectivity Kv1.2/Kv1.3” value at Kv1.2 is 65. Further, at Kv1.6, the “Selectivity Kv1.6/Kv1.3” value came out at 1204.
“H-S[Nle]D[Nle]RC(1)SASVEC(2)AQSC(3)LKAIGSIFGKC(1)MNKKC(2)KC(3)YPR-NH2 [Peptide 81]”: the half-maximal inhibitory concentration (IC50) at Kv1.3 was 0.21 nM. Moreover, at Kv1.1, the concentration for half-maximal inhibition (IC50) was greater than 3000 nM and the “Selectivity Kv1.1/Kv1.3” value was greater than 14600. Besides, on Kv1.2, the IC50 was determined as 1150 nM and the “Selectivity Kv1.2/Kv1.3” value is 5596. Moreover, at Kv1.6, the IC50 was greater than 3000 nM and the “Selectivity Kv1.6/Kv1.3” value is greater than 14600.
Consider “H-S[Nle]D[Nle]RC(1)SASVEC(2)KQKC(3)LKAIGSIFGKC(1)MNKKC(2)RC(3)YPR-NH2 [Peptide 77]”, for which the IC50 on Kv1.3 is 0.13 nM; in assay [1], 0.86 nM.
For “H-S[Nle]D[Nle]RC(1)SASVEC(2)KQKC(3)LKAIGSIFGKC(1)[Nle]NKKC(2)KC(3)YPR-NH2 [Peptide 67]” the same measures were 0.18 nM and 0.47 nM.
For “H-V[Nle]D[Nle]RC(1)SASVEC(2)KQKC(3)LKAIGSIFGKC(1)[Nle]NKKC(2)KC(3)YPR-NH2 [Peptide 69]” the same measures were 0.32 nM and 0.98 nM.
The like results for “H-Y[Nle]D[Nle]RC(1)SASVEC(2)KQKC(3)LKAIGSIFGKC(1)[Nle]NKKC(2)KC(3)YPR-NH2 [Peptide 66]” were, in that order, 0.14 nM and 1.1 nM.
